{"source": "patent US7888337B2", "about": "(priority 2007, dated 2011)", "key": {"[1]": {"system": "NIBRG-14 (H5N1) influenza A virus", "set-up": "species or system mice", "details": "mouse, in vivo"}, "[2]": {"biological_target": "NA from influenza virus A/Hanoi/30408/2005 (H5N1) (Influenza A virus (A/Hanoi/30408/2005(H5N1)), UniProt Q3C1C4)", "assay": "biochemical"}, "[3]": {"system": "flu (A/WSN/1933) infection, H1N1", "assay": "microbe, parasite or virus in culture", "assay_type": "cell-based, influenza A/WSN/1933 (H1N1)"}, "[4]": {"assay": "in vitro", "details": "dog"}, "[5]": {"system": "influenza A [A/WSN/33 (H1N1)] virus", "set-up": "species or system mice", "details": "mouse, in vivo; for efficacy at lower concentrations in comparison to compounds 3 and 13b: 0.01 mg/kg/day"}, "[6]": {"system": "A/WSN/33 (H1N1) influenza virus", "details": "mouse, in vivo"}, "[7]": {"biological_target": "Neuraminidase (NA) from influenza virus A/WSN/1933 (H1N1) (Influenza A virus, UniProt P03470)", "sequence (P03470 whole entry, looked up)": "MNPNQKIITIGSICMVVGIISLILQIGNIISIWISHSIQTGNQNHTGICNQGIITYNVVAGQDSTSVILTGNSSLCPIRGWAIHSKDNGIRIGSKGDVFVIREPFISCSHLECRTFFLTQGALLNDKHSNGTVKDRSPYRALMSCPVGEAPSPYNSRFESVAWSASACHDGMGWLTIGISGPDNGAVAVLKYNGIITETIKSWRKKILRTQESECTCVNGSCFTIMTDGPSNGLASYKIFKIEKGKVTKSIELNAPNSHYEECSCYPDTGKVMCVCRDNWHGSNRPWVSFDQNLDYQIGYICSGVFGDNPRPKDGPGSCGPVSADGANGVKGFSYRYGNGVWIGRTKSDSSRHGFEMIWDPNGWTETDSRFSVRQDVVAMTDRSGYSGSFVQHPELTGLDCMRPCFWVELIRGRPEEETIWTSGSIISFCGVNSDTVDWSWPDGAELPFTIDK", "assay": "biochemical", "assay_type": "biochemical"}}, "note": "“And” between values parts separate entries of the source, which are not always exact repeats. Identical values can stand only once. Like-named read-outs stand apart in the source and are kept apart here. Marks after values point to notes of the source that are not given here."}
{"smiles": "CCOC(=O)C1=C[C@@H](OC(CC)CC)[C@H](NC(C)=O)[C@@H](N)C1", "note": "[Compound 1, Ethyl (3R,4R,5S)-4-acetamido-5-amino-3-(1-ethylpropoxy)-1-cyclohexene-1-carboxylate phosphate, reference compound]", "values": [{"measurement": "% Survivors, day 7", "setting": "[1]; phosphate", "result": "10 (100)^b % and 0 (40)^b % and 0 (0)^b %"}, {"measurement": "% Survivors, day 14", "setting": "[1]; phosphate", "result": "10 (100)^b % and 0 (40)^b % and 0 (0)^b %"}, {"measurement": "Mean day to death", "setting": "[1]; phosphate", "result": "9.4 days and 7.6 days and 5.3 days"}]}
{"smiles": "CCC(CC)O[C@@H]1C=C(C(=O)O)C[C@H](N)[C@H]1NC(C)=O", "note": "[Compound 2, (3R,4R,5S)-4-Acetamido-5-amino-3-(1-ethylpropoxy)-1-cyclohexene-1-carboxylic acid, reference compound]", "values": [{"measurement": "IC50", "setting": "[2]", "result": 62.9, "unit": "nM"}, {"measurement": "EC50", "setting": "[3]; read-out: EC50", "result": 31.3, "unit": "nM"}, {"measurement": "CC50", "setting": "[4]", "result": "> 100000", "unit": "nM"}]}
{"smiles": "CCC(CC)O[C@@H]1C=C(P(=O)(O)O)C[C@H](N)[C@H]1NC(C)=O", "note": "[Compound 3, Ammonium (3R,4R,5S)-4-acetamido-5-amino-3-(1-ethylpropoxy)-1-cyclohexene-1-phosphonate]", "values": [{"measurement": "IC50", "setting": "[2]", "result": 13.3, "unit": "nM"}, {"measurement": "EC50", "setting": "[3]; Influenza A virus, MDCK", "result": 4.67, "unit": "nM"}, {"measurement": "% Survivors, day 7", "setting": "[1]", "result": "10 (100)^b % and 0 (60)^b % and 0 (0)^b %"}, {"measurement": "% Survivors, day 14", "setting": "[1]", "result": "10 (100)^b % and 0 (60)^b % and 0 (0)^b %"}, {"measurement": "Mean day to death", "setting": "[1]", "result": "9.1 days and 8.7 days and 5.6 days and 5.7 days"}, {"measurement": "efficacy compared with Tamiflu by survival rate and mean survival time of mice", "setting": "[1]", "result": "at least equally effective"}, {"measurement": "Mean day to death", "setting": "[5]", "result": "8.2 days and 5.9 days and 5.3 days"}, {"measurement": "efficacy compared with Tamiflu by survival rate and mean survival time of mice", "setting": "[6]", "result": "more effective than Tamiflu"}, {"measurement": "oral bioavailability in protecting mice against lethal challenge", "setting": "[6]; po", "result": "orally bioavailable"}, {"measurement": "CC50", "setting": "[4]", "result": 74000, "unit": "nM"}]}
{"smiles": "CCOP(=O)(OCC)C1=C[C@@H](OC(CC)CC)[C@H](NC(C)=O)[C@@H](N)C1", "note": "[Compound 3b, Diethyl (3R,4R,5S)-4-acetamido-5-amino-3-(1-ethylpropoxy)-1-cyclohexene-1-phosphonate]", "values": [{"measurement": "% Survivors, day 7", "setting": "[1]", "result": "0 (100)^b % and 0 (20)^b % and 0 (0)^b %"}, {"measurement": "% Survivors, day 14", "setting": "[1]", "result": "0 (100)^b % and 0 (20)^b % and 0 (0)^b %"}, {"measurement": "Mean day to death", "setting": "[1]", "result": "9.5 days and 7.3 days and 5.3 days and 4.9 days"}, {"measurement": "% Survivors, day 7", "setting": "[6]", "result": "0 (100)^b % and 0 (60)^b % and 0 (30)^b %"}, {"measurement": "% Survivors, day 14", "setting": "[6]", "result": "0 (100)^b % and 0 (60)^b % and 0 (30)^b %"}]}
{"smiles": "CCOP(=O)(O)C1=C[C@@H](OC(CC)CC)[C@H](NC(C)=O)[C@@H](N)C1.N", "note": "[Compound 3c, Ethyl (3R,4R,5S)-4-acetamido-5-amino-3-(1-ethylpropoxy)-1-cyclohexene-1-phosphonate ammonium salt]", "values": [{"measurement": "survival rate and body weight in comparison to compounds 3 and 13b", "setting": "[5]", "result": "improved survival rates and improved weight retention"}, {"measurement": "efficacy at lower concentrations in comparison to compounds 3 and 13b", "setting": "[5]", "result": "equally ineffective"}, {"measurement": "Mean day to death", "setting": "[5]; ammonium salt", "result": "9.3 days and 6.2 days and 4.8 days"}]}
{"smiles": "CCC(CC)O[C@@H]1C=C(C(=O)O)C[C@H](NC(=N)N)[C@H]1NC(C)=O", "note": "[Compound 13a, (3R,4R,5S)-4-acetamido-5-guanidinyl-3-(1-ethylpropoxy)-1-cyclohexene-1-carboxylic acid, reference compound]", "values": [{"measurement": "IC50", "setting": "[2]", "result": 160, "unit": "nM"}, {"measurement": "EC50", "setting": "[3]; Influenza A virus, MDCK", "result": 5.6, "unit": "nM"}, {"measurement": "CC50", "setting": "[4]", "result": "> 100000", "unit": "nM"}]}
{"smiles": "CCC(CC)O[C@@H]1C=C(P(=O)(O)O)C[C@H](NC(=N)N)[C@H]1NC(C)=O", "note": "[Compound 13b, Ammonium (3R,4R,5S)-4-acetamido-5-guanidinyl-3-(1-ethylpropoxy)-1-cyclohexene-1-phosphonate]", "values": [{"measurement": "IC50", "setting": "[2]", "result": 1.82, "unit": "nM"}, {"measurement": "EC50", "setting": "[3]; Influenza A virus, MDCK", "result": 0.09, "unit": "nM"}, {"measurement": "CC50", "setting": "[4]", "result": "~5000", "unit": "nM"}]}
{"smiles": "CCOP(=O)(O)C1=C[C@@H](OC(CC)CC)[C@H](NC(C)=O)[C@@H](NC(=N)N)C1.N", "note": "[Compound 13c, Ethyl (3R,4R,5S)-4-acetamido-5-guanidinyl-3-(1-ethylpropoxy)-1-cyclohexene-1-phosphonate ammonium salt]", "values": [{"measurement": "survival rate and body weight in comparison to compounds 3 and 13b", "setting": "[5]", "result": "improved survival rates and improved weight retention"}, {"measurement": "efficacy at lower concentrations in comparison to compounds 3 and 13b", "setting": "[5]", "result": "equally ineffective"}, {"measurement": "Mean day to death", "setting": "[5]; ammonium salt", "result": "6.8 days and 5.7 days"}]}
{"smiles": "CC(=O)N[C@H]1[C@H](O)C=C(C(=O)O)C[C@@H]1N", "note": "[Compound 14a, (3R,4R,5S)-4-Acetamido-5-amino-3-hydroxy-1-cyclohexene-1-carboxylic acid, reference compound]", "values": [{"measurement": "IC50", "setting": "[7]", "result": 36700, "unit": "nM"}, {"measurement": "NAI activity in comparison with 2 and 3", "setting": "[7]", "result": "inferior NAI activity"}]}
{"smiles": "CC(=O)N[C@H]1[C@H](O)C=C(P(=O)(O)O)C[C@@H]1N", "note": "[Compound 14b, Ammonium (3R,4R,5S)-4-acetamido-5-amino-3-hydroxy-1-cyclohexene-1-phosphonate]", "values": [{"measurement": "IC50", "setting": "[7]", "result": 3200, "unit": "nM"}, {"measurement": "NAI activity in comparison with 2 and 3", "setting": "[7]", "result": "inferior NAI activity"}]}
